Assays:
[1] = system: acetylated tubulin and acetylated histone H3 in A549 cells; settings: 24 hrs, tubacin 0.2, 2 or 20 μM; cited from earlier work
recombinant human HDAC1 = recombinant human HDAC1 (Homo sapiens, UniProt Q13547); test: In vitro HDAC assay with fluorogenic substrate, HDAC 1
Procedure: (§1) Inhibition of HDAC 1 and HDAC 6 were analyzed with a fluorogenic substrate according to manufacture's protocol (HDAC assay reagents were purchased from BPS Biosciences, San Diego, Calif.). 50 μl reaction mixture, which contains 1×HDAC assay buffer, 5 units of recombinant human HDAC1 or HDAC 6, 10 μM substrate 3 and 1 μl inhibitor in DMSO, was incubated at 37° C. for 1 hour. […] The fluorescence intensity was measured at excitation of 360 nm and emission of 460 nm with SpectraMax Gemini XS microplate reader (Molecular Devices, Sunny Calif.).

LNCaP cells = test: Cell growth and viability by trypan blue exclusion, LNCaP; settings: LNCaP, 8 μM nil-tubacin alone
Procedure: 5×10^4 cells were seeded per well in a 24-well plate and cultured overnight prior to treating with the compound and/or other agents as indicated for each study. Cells were harvested at 24, 48 and 72 hrs after treatment by trypsin digestion. […] At least three independent analyses were performed for each time point.
To monitor cell growth and viability, cells were seeded in triplicate at 5×10^4 cells in 1 ml of medium in 24-well plates. The drugs were added at the indicated concentrations 24 h after seeding. Cells were harvested by trypsin digestion at 24 h, 48 h and 72 h following drug additions. Cell number and viability were determined by trypan blue exclusion.

recombinant human HDAC 6 = molecular target: T1, recombinant human HDAC 6 (Homo sapiens, UniProt Q9UBN7); test: In vitro HDAC assay with fluorogenic substrate, HDAC 6
T1 sequence (Q9UBN7 1-1215): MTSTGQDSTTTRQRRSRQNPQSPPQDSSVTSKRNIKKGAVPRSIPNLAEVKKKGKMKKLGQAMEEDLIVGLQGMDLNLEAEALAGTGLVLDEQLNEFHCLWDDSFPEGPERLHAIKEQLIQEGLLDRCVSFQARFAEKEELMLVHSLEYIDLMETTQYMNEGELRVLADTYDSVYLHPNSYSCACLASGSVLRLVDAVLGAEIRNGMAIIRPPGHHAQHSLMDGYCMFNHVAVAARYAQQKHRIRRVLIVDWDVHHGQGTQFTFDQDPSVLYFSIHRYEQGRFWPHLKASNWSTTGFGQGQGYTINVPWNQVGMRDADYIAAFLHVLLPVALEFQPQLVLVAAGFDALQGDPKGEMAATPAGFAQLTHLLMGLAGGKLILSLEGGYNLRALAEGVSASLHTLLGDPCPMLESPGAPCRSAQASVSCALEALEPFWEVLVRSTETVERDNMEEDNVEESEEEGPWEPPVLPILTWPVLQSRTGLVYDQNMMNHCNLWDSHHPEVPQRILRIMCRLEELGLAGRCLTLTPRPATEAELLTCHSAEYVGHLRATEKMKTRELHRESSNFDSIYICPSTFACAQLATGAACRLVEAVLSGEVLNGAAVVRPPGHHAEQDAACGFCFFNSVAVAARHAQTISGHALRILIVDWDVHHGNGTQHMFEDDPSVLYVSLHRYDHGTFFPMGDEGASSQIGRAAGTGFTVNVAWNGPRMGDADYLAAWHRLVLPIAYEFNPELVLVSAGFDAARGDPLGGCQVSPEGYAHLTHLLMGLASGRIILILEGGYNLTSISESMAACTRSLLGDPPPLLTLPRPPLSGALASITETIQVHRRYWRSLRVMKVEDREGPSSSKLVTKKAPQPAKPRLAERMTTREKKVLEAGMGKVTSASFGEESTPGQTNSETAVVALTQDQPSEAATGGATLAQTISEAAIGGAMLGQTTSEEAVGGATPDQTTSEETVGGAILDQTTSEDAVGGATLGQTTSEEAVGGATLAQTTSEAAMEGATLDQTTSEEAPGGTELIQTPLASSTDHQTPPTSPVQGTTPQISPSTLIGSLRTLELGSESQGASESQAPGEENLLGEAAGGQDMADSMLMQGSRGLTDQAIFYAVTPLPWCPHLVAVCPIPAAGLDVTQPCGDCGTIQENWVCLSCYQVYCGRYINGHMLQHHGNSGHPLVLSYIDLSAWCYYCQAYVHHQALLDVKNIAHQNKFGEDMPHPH
Procedure: as §1

recombinant human HDAC1, sequence (Q13547 whole entry): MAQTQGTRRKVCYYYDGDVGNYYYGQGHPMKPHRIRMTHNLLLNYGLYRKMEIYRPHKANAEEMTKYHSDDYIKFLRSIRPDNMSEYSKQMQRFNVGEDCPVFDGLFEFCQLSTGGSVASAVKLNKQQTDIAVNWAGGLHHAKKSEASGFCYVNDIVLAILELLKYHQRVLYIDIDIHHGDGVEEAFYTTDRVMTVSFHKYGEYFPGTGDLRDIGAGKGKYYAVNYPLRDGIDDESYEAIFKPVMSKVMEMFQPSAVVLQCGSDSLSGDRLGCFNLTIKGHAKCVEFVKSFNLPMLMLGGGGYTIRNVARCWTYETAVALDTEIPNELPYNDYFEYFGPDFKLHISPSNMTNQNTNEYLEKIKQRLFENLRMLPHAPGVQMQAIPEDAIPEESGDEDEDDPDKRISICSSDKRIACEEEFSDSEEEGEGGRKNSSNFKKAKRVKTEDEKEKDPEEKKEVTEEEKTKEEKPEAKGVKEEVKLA

IC50 (recombinant human HDAC1): > 100 nM
IC50 (recombinant human HDAC 6): > 100 nM
Structure (SMILES): O=C(O)CCCCCCC(=O)Nc1ccc([C@H]2O[C@@H](CSc3nc(-c4ccccc4)c(-c4ccccc4)o3)C[C@@H](c3ccc(CO)cc3)O2)cc1 [niltubacin]
accumulation of acetylated histone H3 [1]: did not induce accumulation
accumulation of acetylated tubulin [1]: did not induce the accumulation
effect on cell growth or cell viability (LNCaP cells): did not have a detectable effect
